The source of these data is PubChem BioAssay (NCI).

SMILES strings stand for the structures.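 Following 48 hours of exposure in 96-well plates, responses at five concentrations were used to interpolate endpoints linearly. Abbreviation: GI50, concentration required for 50% inhibition of growth. At the TGI there is no net growth.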

Among the test systems are NCI-H460 lung; SK-MEL-28 melanoma; HL-60(TB) leukemia; LOX IMVI melanoma; HOP-62 NSCLC; COLO 205 colon; SF-268 CNS; IGROV1 ovarian; K-562 leukemia; OVCAR-8 ovarian.
Common to all, as to test: inhibition of tumour cell growth, NCI panel, 48 h

Take `O=C1C=C(Nc2ccc(Cl)cc2C(=O)c2ccccc2)c2ccccc2C1=O`: the TGI in the assay on NCI-H460 lung, with SK-MEL-28 melanoma, with HL-60(TB) leukemia, with LOX IMVI melanoma, in the assay with HOP-62 NSCLC and in the assay with COLO 205 colon was > 100 µM throughout. In addition, the TGI with SF-268 CNS, in the assay on IGROV1 ovarian, with K-562 leukemia and with OVCAR-8 ovarian was > 100 µM throughout.
`COc1ccc(-c2cc(=O)oc3c4c(ccc23)OCN(Cc2ccc(F)cc2)C4)cc1`: the GI50 with NCI-H460 lung was 15.9 µM; in the assay on SK-MEL-28 melanoma, 15.1 µM; with HL-60(TB) leukemia, 23.2 µM; in the assay with LOX IMVI melanoma it was 16.7 µM; with HOP-62 NSCLC, 14.4 µM; in the assay with COLO 205 colon, 18.7 µM. In addition, the GI50 in the assay on SF-268 CNS is 16.6 µM; in the assay on IGROV1 ovarian, 20.5 µM; with K-562 leukemia, 19.3 µM; with OVCAR-8 ovarian it was 17.2 µM. In addition, the TGI with NCI-H460 lung was found to be 30.2 µM; in the assay with SK-MEL-28 melanoma, 30.7 µM; with HL-60(TB) leukemia it was 57.4 µM; in the assay with LOX IMVI melanoma it was 32.3 µM; in the assay with HOP-62 NSCLC it was 30.8 µM; with COLO 205 colon it was 36.1 µM. The TGI with SF-268 CNS amounted to 34.8 µM; with IGROV1 ovarian, 51.5 µM; in the assay on K-562 leukemia, 68.4 µM; in the assay with OVCAR-8 ovarian, 37.7 µM.
For the molecule `Oc1oc(C(=C2N=c3ccccc3=N2)c2ccc(Cl)cc2)c(O)c1-c1ccc(Cl)cc1`, the TGI with NCI-H460 lung is > 100 µM; with SK-MEL-28 melanoma, 33.7 µM; with HL-60(TB) leukemia it was 5.02 µM; in the assay on LOX IMVI melanoma, 10.1 µM; with HOP-62 NSCLC, 4.51 µM; in the assay with COLO 205 colon, 3.01 µM. The TGI in the assay on SF-268 CNS, in the assay with IGROV1 ovarian, in the assay with K-562 leukemia and with OVCAR-8 ovarian was > 100 µM throughout.
